Several values for one entry are separate records, joined by “and”; a condition that tells them apart may be missing. Equal values may be shown once. Read-outs that look alike come from different tables or passages of the source.
B1: Rv3615c: MTB antigen functionally linked to Esx-1 (Millington et al., 2011); single antigen, not part of an antigenic island (protein, UniProt P9WJD7 2-103, looked up)
ESX-1 secretion-associated …: TENLTVQPERLGVLASHHDNAAVDASSGVEAAAGLGESVAITHGPYCSQFNDTLNVYLTAHNALGSSLHTAGVDLAKSLRIAAKIYSEADEAWRKAIDGLFT

Tested on: PBMCs from LTBI donors (IFN-γ production)
Assay type: cell-based, human
Conditions: for Resp. freq.: fraction of 28 LTBI donors responding to epitopes of the antigen; for Resp. freq. / Total SFC: ex vivo IFN-γ ELISPOT; for Total SFC: total spot-forming cells, LTBI donors
[1] = individual MTB epitope peptide, one value per responding LTBI donor

Row | Molecule | SFC [1] | further results
1 | AAAQASAAAAAYEAA | 20.0 | 
2 | AAFDYADGAAEDELS | 21.7 | 
3 | AAHAGEYGQMVTLRG | 23.3 | 
4 | AAVIVGSGRIASLYV | 23.3 | 
5 | ADKNPLFLDEQLTRA | 45.0 | 
6 | ADVLTMKAVRAATAL | 41.7 | 
7 | AELFRLQTEFVKLQE | 85.0 | 
8 | AGAMGAYAAAEAANA | 111.7 | 
9 | AGGFGGAGAGIANFL | 20.0 | 
10 | AGISSLIIDPNPMFV | 88.3 | 
11 | AGTLSTFFGVPLVLT | 21.7 | 
12 | AGYPAELAYFEVLHE | 23.3 | 
13 | AHESLCFAGANLIPL | 25.0 | 
14 | AHLIHFAAANLRNPG | 30.0 | 
15 | ALEMFYDDDADLSII | 25.0 | 
16 | ALLWLADQVDAALEK | 48.3 | 
17 | ALPRLLRRLVIMGGM | 128.3 | 
18 | ALRILVYSDNVQTRE | 91.7 | 
19 | ALVEEYLRGLRQAAG | 30.0 | 
20 | AMNEAFVAMLGASAD | 31.7 | 
21 | APPNLIRAILRAPVD | 30.0 | 
22 | APVVILAHGFPELAY | 23.3 | 
23 | APWQQVLRNLGIDIG | 96.7 | 
24 | AQEYQALSAQAAAFH | 41.7 | 

Row | Molecule | SFC [1] | further results
25 | AQIIHRITATARHPG | 53.3 | 
26 | AQTSQFVMAMINYED | 26.7 | 
27 | ARFHQQFVQALTASV | 35.0 | 
28 | ARVFLDSVLPALGEE | 38.3 | 
29 | ASMSMAAAASPYVGW | 78.3 | 
30 | ASVGSYAAAEAANAS | 38.3 | 
31 | AVDAVFVGSCTNGRI | 46.7 | 
32 | AVITELIAMLRHHHI | 40.0 | 
33 | AVLEDPYILLVSSKV | 21.7 | 
34 | AVLLEKIVADEEEHI | 26.7 and 28.3 | 
35 | AVSIGILLSLIAPLG | 55.0 | 
36 | AVVVLKRLPDALADG | 25.0 | 
37 | CLGSHLARLELTLLV | 91.7 | 
38 | CRGYDVVILDRYVAS | 21.7 | 
39 | CRRYEVLLIFDEIAT | 65.0 | 
40 | CSEDLLYLSDLDFDV | 33.3 | 
41 | DDIPRVLAEAFHIAA | 31.7 | 
42 | DLDSYLVEITAEVLR | 23.3 | 
43 | DMTKIVGLRARAKAA | 35.0 | 
44 | DPINEFFLANTGRPL | 66.7 | 
45 | DPVKGADEVVAFAEE | 813.3 | 
46 | DSTVITDGDIVNIDV | 31.7 | 
47 | DTEVYLDAASLSPFV | 266.7 | 
48 | DTQSMIVTDHRYVPA | 33.3 | 

Row | Molecule | SFC [1] | further results
49 | DVIHAFWVPEFLFKR | 158.3 | 
50 | DVTIRFRRFFSRLQR | 50.0 | 
51 | EGGNQIVQYLVAQKI | 25.0 | 
52 | EHFGHERYDAFFSLA | 66.7 | 
53 | EHIHRPNTNNVGPII | 65.0 | 
54 | EIYLNTFRHLYGLDC | 25.0 | 
55 | EKMRVAGRIAAGALA | 20.0 | 
56 | ELADLIEFARTVNEE | 43.3 | 
57 | EMLSMLRAMLAPESL | 40.0 | 
58 | ENFFMFIAEEVREYL | 23.3 and 65.0 | 
59 | EPGDIIIDGGNALYT | 35.0 | 
60 | EQMLIDDGILLRKYW | 178.3 | 
61 | ERYVGLYLPFLDMSF | 23.3 | 
62 | ESALFFIGVLIVALL | 55.0 | 
63 | ESGASYAARDALAAA | 45.0 | 
64 | ESVFAATVAELESLI | 36.7 | 
65 | ETLYWLAQPGIRESI | 31.7 | 
66 | EVNIKILIDSLVSAG | 201.7 | 
67 | FFGQNAPAIAAIEAA | 20.0 and 21.7 | 
68 | FLMSVGALIIGWLLQ | 26.7 | 
69 | FRVVISSRFGDIFRG | 20.0 | 
70 | FSLVNFFDAQVGPLS | 43.3 | 
71 | GAYAAAEAANVSAAQ | 176.7 | 
72 | GFTIANHNAAAVGEI | 140.0 | 

Row | Molecule | SFC [1] | further results
73 | GQQYQAMSAQAAAFH | 50.0 | 
74 | GSAENFSVVEALADS | 138.3 and 20.0 | 
75 | GSTINAANAAAALPT | 36.7 and 190.0 | 
76 | HPQQFIYAGSLSALL | 35.0 | 
77 | HTVLVATNFFGINTI |  | SFC: 331.7
78 | IGLVLIAVLVFVPRV | 38.3 | 
79 | IGSSIGAANAAAAGS | 45.0 | 
80 | ITPDEGAYAFEALLR | 28.3 | 
81 | KMAPVLRQIYDQMAE | 66.7 | 
82 | LDWFCLFSSAAALTG | 23.3 | 
83 | LLSTRGYITAEKIRS | 35.0 | 
84 | LPLLVPLRAIPLLGN | 20.0 | 
85 | LRLLVIALKHNVILN | 31.7 | 
86 | LTVDAGAYASAEAAN | 31.7 and 58.3 | 
87 | LVAQEAAAAGTPLVT | 23.3 | 
88 | LVLVIDDEPQILRAL | 81.7 | 
89 | LYRPGLVHIYHALTW | 28.3 | 
90 | MAKTIAYDEEARRGL | 38.3 and 56.7 | 
91 | MDYFIRMWNQAALAM | 46.7 | 
92 | NPFPFLRQIIANQQV | 26.7 | 
93 | NRASLMQLISTNVFG | 21.7 | 
94 | PPEVNSARVFAGAGS | 38.3 and 31.7 | 
95 | QAARGIRPLFDDITE | 21.7 | 
96 | QAFRSRFGENFFYIL | 31.7 | 

Row | Molecule | SFC [1] | further results
97 | QAVLTATNFFGINTI | 341.7 | 
98 | QLSAEYASTAAELSG | 26.7 | 
99 | QRPRMLYDYFHQLFA | 141.7 | 
100 | QTLVYKGMLTTPQLK | 40.0 | 
101 | RARQGFRDIEFHPTI | 45.0 and 28.3 | 
102 | RVIEDALRFYFESHE | 141.7 | 
103 | RVLLAGWEQFDEPVD | 101.7 | 
104 | Rv0289: MTB protein, novel CD4 T cell antigen; Cell wall and cell processes, Island 1, Esx-3 |  | Resp. freq.: 29%; Total SFC: 2298 SFC
105 | Rv1243c: MTB protein, novel CD4 T cell antigen; PE/PPE |  | Resp. freq.: 11%; Total SFC: 114 SFC
106 | Rv2853: MTB protein, novel CD4 T cell antigen; PE/PPE |  | Resp. freq.: 11%; Total SFC: 85 SFC
107 | Rv3022c: MTB protein, novel CD4 T cell antigen; PE/PPE, Island 2 |  | Resp. freq.: 18%; Total SFC: 109 SFC
108 | SAAGSYAAAEAANAS | 91.7 and 21.7 | 
109 | SEFNEVFFNDVFVPD | 41.7 | 
110 | SILDMRQLFDGIDLS | 26.7 | 
111 | SLAVKTFEDLFAELG | 23.3 | 
112 | SQVIEAVNLFRANVI | 33.3 | 
113 | TDNGAMIAAFAAQLV | 203.3 and 30.0 | 
114 | TGIFGLVLVICVVLI | 35.0 | 
115 | TVAWTMLGVALSAYE | 50.0 and 25.0 | 
116 | VDVEDGRVIVDEYQR | 20.0 | 
117 | YLAWLSTAAAQAEQA | 145.0 and 100.0 | 
118 | B1 |  | recognition by LTBI donors (result in words): prevalently recognized

Source: US10703784B2, “Antigens and epitopes derived from Mycobacterium tuberculosis” (priority 2011, dated 2020)
